The text below walks through data of US12122761B2, “2-azaspiro[3.4]octane derivatives as M4 agonists” (NOVARTIS AG, priority 2019, dated 2024).

In general, EC50 refers to the concentration giving half of the maximal effect.

The target in assay [1] is T1, human cloned CHRM4 receptor (M4_CHO cells) (Homo sapiens, UniProt P08173).
T1 construct: expressed in transfected cells; host or cells: CHO-K1
T1 sequence (P08173 1-479): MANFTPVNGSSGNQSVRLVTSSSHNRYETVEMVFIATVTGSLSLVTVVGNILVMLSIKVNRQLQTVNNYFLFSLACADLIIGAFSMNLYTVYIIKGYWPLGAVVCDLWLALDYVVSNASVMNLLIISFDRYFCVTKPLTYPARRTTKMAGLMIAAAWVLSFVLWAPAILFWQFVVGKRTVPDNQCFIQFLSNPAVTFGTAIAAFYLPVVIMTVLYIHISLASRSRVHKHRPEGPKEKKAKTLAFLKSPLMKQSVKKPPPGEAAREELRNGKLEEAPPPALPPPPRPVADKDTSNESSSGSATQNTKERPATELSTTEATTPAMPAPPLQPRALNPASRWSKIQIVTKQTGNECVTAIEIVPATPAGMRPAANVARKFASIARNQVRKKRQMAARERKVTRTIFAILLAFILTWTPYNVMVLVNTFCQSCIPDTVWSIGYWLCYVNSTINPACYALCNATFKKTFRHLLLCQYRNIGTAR
Kind of assay: CHRM4 Ca++ Flux Assay (agonist mode, FDSS 7000EX). As to conditions: for Emax: Percent Activity, read-out: M4 FDSS PA; for EC50: geometric mean if tested more than once, read-out: M4 FDSS EC50. The class given is cell-based. In outline: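 M4_CHO cells loaded with a Ca++ dye for at least 1 h were held 60 min at room temperature in HEPES/probenecid buffer with 20 μM ATP. Ca++ flux after an 11-point compound dose, in triplicate and agonist mode, was recorded over 3 min. Four-parameter fits gave curves, with activity expressed relative to the Carbachol EC100.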

Assay [2] deals with T2, human cloned CHRM3 receptor (M3_CHO cells) (Homo sapiens, UniProt P20309).
T2 construct: expressed in transfected cells; host or cells: CHO-K1
Kind of assay: CHRM3 Ca++ Flux Assay (agonist mode, FDSS 7000EX). As to conditions: for Emax: Percent Activity measured to EC100 of Carbachol, read-out: M3 FDSS PA; for EC50: agonist mode, geometric mean if tested more than once, read-out: M3 FDSS EC50. The class given is cell-based. An outline of the steps: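 CHO-K1 cells stably expressing human M3 or M5 receptor were dye-loaded for at least 1 h in HBSS with 20 mM HEPES and 2.5 mM probenecid, then given 11-point compound doses in triplicate.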

T2 sequence (P20309 whole entry): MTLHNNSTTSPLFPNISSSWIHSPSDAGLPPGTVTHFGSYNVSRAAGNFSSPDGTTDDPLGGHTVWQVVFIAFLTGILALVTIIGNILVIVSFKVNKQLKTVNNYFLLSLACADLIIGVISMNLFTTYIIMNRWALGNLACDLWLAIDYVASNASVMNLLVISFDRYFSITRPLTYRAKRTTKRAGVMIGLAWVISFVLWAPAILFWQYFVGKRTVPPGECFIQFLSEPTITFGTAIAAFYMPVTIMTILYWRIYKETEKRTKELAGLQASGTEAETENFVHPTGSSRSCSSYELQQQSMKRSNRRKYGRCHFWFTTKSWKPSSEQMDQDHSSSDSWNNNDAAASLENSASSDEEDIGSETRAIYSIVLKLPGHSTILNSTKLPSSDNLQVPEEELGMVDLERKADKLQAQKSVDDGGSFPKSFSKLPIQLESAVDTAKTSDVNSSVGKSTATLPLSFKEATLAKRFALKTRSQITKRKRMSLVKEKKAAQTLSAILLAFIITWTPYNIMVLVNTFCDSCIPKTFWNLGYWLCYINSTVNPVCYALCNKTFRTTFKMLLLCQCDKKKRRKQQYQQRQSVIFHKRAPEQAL

In the case of `c1ccc(C2CCN([C@@H]3CCC4(C3)CN(c3nnco3)C4)CC2)c(OC[C@@H]2COCCO2)c1` [Example 1E, 2-((R)-6-(4-(2-(((S)-1,4-dioxan-2-yl)methoxy)phenyl)piperidin-1-yl)-2-azaspiro[3.4]octan-2-yl)-1,3,4-oxadiazole], the Emax in assay [1] came to 72%; in assay [2], 0%. In addition, the values for the EC50 in assay [1] and in assay [2] were 1 nM and > 25000 nM, respectively.
`O=C(C1COC1)N1CC2(CC[C@@H](N3CCC(c4ccccc4OCCC4COC4)CC3)C2)C1` [Example 7KK, (R)-oxetan-3-yl(6-(4-(2-(2-(oxetan-3-yl)ethoxy)phenyl)piperidin-1-yl)-2-azaspiro[3.4]octan-2-yl)methanone]: the figures for the Emax in assay [1] and in assay [2] were 47% and 0%, respectively. The values for the EC50 in assay [1] and in assay [2] were 2 nM and > 25000 nM, respectively.
For `O=C(C1COC1)N1CC2(CC[C@@H](N3CCC(c4ccc(F)cc4OC(F)F)CC3)C2)C1` [Example 6B, (R)-(6-(4-(2-(difluoromethoxy)-4-fluorophenyl)piperidin-1-yl)-2-azaspiro[3.4]octan-2-yl)(oxetan-3-yl)methanone], the Emax in assay [1] was 50%; in assay [2], 0%. Besides, the EC50 in assay [1] was 5 nM; in assay [2], > 25000 nM.
On to `COCCOc1ccccc1C1CCN([C@@H]2CCC3(C2)CN(c2cccnn2)C3)CC1` [Example 5X, (R)-6-(4-(2-(2-methoxyethoxy)phenyl)piperidin-1-yl)-2-(pyridazin-3-yl)-2-azaspiro[3.4]octane], for which, in assay [1], the Emax came to 24% and the EC50 turned out to be 54 nM. In assay [2], the Emax came to 0% and the EC50 was > 25000 nM.
Consider `O=C(C1COC1)N1CC2(CC[C@@H](N3CCC(c4ccccc4OCCC(F)(F)F)CC3)C2)C1` [Example 7GG, (R)-oxetan-3-yl(6-(4-(2-(3,3,3-trifluoropropoxy)phenyl)piperidin-1-yl)-2-azaspiro[3.4]octan-2-yl)methanone], for which the Emax in assay [1] was 48%; in assay [2] it was 0%. The EC50 in assay [1] is 7 nM; in assay [2] it was > 25000 nM.
Taken in the same sequence, the figures for `FC1(COc2ccccc2C2CCN([C@@H]3CCC4(C3)CN(c3nncs3)C4)CC2)COC1` [Example 1H, (R)-2-(6-(4-(2-((3-fluorooxetan-3-yl)methoxy)phenyl)piperidin-1-yl)-2-azaspiro[3.4]octan-2-yl)-1,3,4-thiadiazole] were 71%, 0%, 1 nM and > 25000 nM.
`c1ccc(C2CCN([C@@H]3CCC4(C3)CN(c3nncs3)C4)CC2)c(OC[C@H]2COCCO2)c1` [Example 3B, 2-((R)-6-(4-(2-(((R)-1,4-dioxan-2-yl)methoxy)phenyl)piperidin-1-yl)-2-azaspiro[3.4]octan-2-yl)-1,3,4-thiadiazole]: in assay [1], the Emax came to 70% and the EC50 turned out to be 1 nM. For the same molecule, in assay [2], the Emax was 0% and the EC50 is > 25000 nM.
Taken in the same sequence, the figures for `O=C(C1COC1)N1CC2(CC[C@@H](N3CCC(c4ccccc4OCC4CC4)CC3)C2)C1` [Example 7I, (R)-(6-(4-(2-(cyclopropylmethoxy)phenyl)piperidin-1-yl)-2-azaspiro[3.4]octan-2-yl)(oxetan-3-yl)methanone] were 55%, 7 nM, 0% and > 25000 nM.
As to `Fc1cccc(C2CCN([C@@H]3CCC4(C3)CN(c3nncs3)C4)CC2)c1OC1COC1` [Example 3E, (R)-2-(6-(4-(3-fluoro-2-(oxetan-3-yloxy)phenyl)piperidin-1-yl)-2-azaspiro[3.4]octan-2-yl)-1,3,4-thiadiazole], in assay [1], the Emax turned out to be 87% and the EC50 amounted to 3 nM. Also, in assay [2], the Emax turned out to be 0% and the EC50 was > 25000 nM.
Regarding `Cc1nccnc1N1CC2(CC[C@@H](N3CCC(c4ccccc4OCC(C)(C)O)CC3)C2)C1` [Example 5T, (R)-2-methyl-1-(2-(1-(2-(3-methylpyrazin-2-yl)-2-azaspiro[3.4]octan-6-yl)piperidin-4-yl)phenoxy)propan-2-ol], in assay [1], the Emax was 25% and the EC50 stood at 63 nM. Besides, in assay [2], the Emax was 0% and the EC50 is > 25000 nM.
With `CC(C)(O)CCOc1ccccc1C1CCN([C@@H]2CCC3(C2)CN(C(=O)C2COC2)C3)CC1` [Example 7CC, (R)-(6-(4-(2-(3-hydroxy-3-methylbutoxy)phenyl)piperidin-1-yl)-2-azaspiro[3.4]octan-2-yl)(oxetan-3-yl)methanone], in assay [1], the Emax turned out to be 46% and the EC50 was 5 nM. Besides, in assay [2], the Emax is 0% and the EC50 was > 25000 nM.
Take `CCOc1ccccc1C1CCN([C@@H]2CCC3(C2)CN(C(=O)C2COC2)C3)CC1` [Example 7J, (R)-(6-(4-(2-ethoxyphenyl)piperidin-1-yl)-2-azaspiro[3.4]octan-2-yl)(oxetan-3-yl)methanone]: in assay [1], the EC50 came out at 6 nM. The Emax in assay [2] was 0%.
For the molecule `Fc1ccc(N2CC3(CC[C@@H](N4CCC(c5ccccc5C5CCOCC5)CC4)C3)C2)cn1` [Example 5CC, (R)-2-(6-fluoropyridin-3-yl)-6-(4-(2-(tetrahydro-2H-pyran-4-yl)phenyl)piperidin-1-yl)-2-azaspiro[3.4]octane], in assay [1], the Emax is 84% and the EC50 amounted to 22 nM. Moreover, in assay [2], the Emax was 0% and the EC50 is > 25000 nM.
Regarding `CC(C)Oc1ccccc1C1CCN([C@@H]2CCC3(C2)CN(C(=O)C2COC2)C3)CC1` [Example 7K, (R)-(6-(4-(2-isopropoxyphenyl)piperidin-1-yl)-2-azaspiro[3.4]octan-2-yl)(oxetan-3-yl)methanone], in assay [1], the Emax was found to be 76% and the EC50 was determined as 9 nM. Moreover, in assay [2], the Emax came to 0% and the EC50 was > 25000 nM.
Consider `O=C(C1COC1)N1CC2(CC[C@@H](N3CCC(c4ccccc4OC(F)(F)F)CC3)C2)C1` [Example 12A, (R)-oxetan-3-yl(6-(4-(2-(trifluoromethoxy)phenyl)piperidin-1-yl)-2-azaspiro[3.4]octan-2-yl)methanone], for which the Emax is 73% in assay [1] and 0% in assay [2]. The EC50 in assay [1] was 2 nM; in assay [2], > 25000 nM.
Consider `COc1ccc(F)cc1C1CCN([C@@H]2CCC3(C2)CN(C(=O)C2COC2)C3)CC1` [Example 6A, (R)-(6-(4-(5-fluoro-2-methoxyphenyl)piperidin-1-yl)-2-azaspiro[3.4]octan-2-yl)(oxetan-3-yl)methanone], for which, in assay [1], the EC50 was 1 nM. Also, the Emax in assay [2] turned out to be 0%.
Consider `COc1ccccc1C1CCN([C@@H]2CCC3(C2)CN(c2nncs2)C3)CC1` [Example 3D, (R)-2-(6-(4-(2-methoxyphenyl)piperidin-1-yl)-2-azaspiro[3.4]octan-2-yl)-1,3,4-thiadiazole], for which the Emax was found to be 71% in assay [1] and 0% in assay [2]. Further, the results for the EC50 in assay [1] and in assay [2] were 2 nM and > 25000 nM, respectively.
The like results for `COc1ccccc1C1CCN([C@@H]2CCC3(C2)CN(c2ccns2)C3)CC1` [Example 3I, (R)-5-(6-(4-(2-methoxyphenyl)piperidin-1-yl)-2-azaspiro[3.4]octan-2-yl)isothiazole] were, in that order, 70%, 0%, 1 nM and > 25000 nM.
Taken in the same sequence, the figures for `Fc1cccc(C2CCN([C@@H]3CCC4(C3)CN(c3cncnc3)C4)CC2)c1OC1COC1` [Example 5W, (R)-6-(4-(3-fluoro-2-(oxetan-3-yloxy)phenyl)piperidin-1-yl)-2-(pyrimidin-5-yl)-2-azaspiro[3.4]octane] were 90%, 0%, 1 nM and > 25000 nM.
Regarding `c1ccc(C2CCN([C@@H]3CCC4(C3)CN(c3nncs3)C4)CC2)c(OCC2CCOCC2)c1` [Example 1I, (R)-2-(6-(4-(2-((tetrahydro-2H-pyran-4-yl)methoxy)phenyl)piperidin-1-yl)-2-azaspiro[3.4]octan-2-yl)-1,3,4-thiadiazole], in assay [1], the Emax was determined as 61% and the EC50 came out at 4 nM. In assay [2], the Emax is 0% and the EC50 was > 25000 nM.
For the molecule `Fc1ccc(C2CCOCC2)c(C2CCN([C@@H]3CCC4(C3)CN(c3nnco3)C4)CC2)c1` [Example 2I, (R)-2-(6-(4-(5-fluoro-2-(tetrahydro-2H-pyran-4-yl)phenyl)piperidin-1-yl)-2-azaspiro[3.4]octan-2-yl)-1,3,4-oxadiazole], in assay [1], the Emax is 96% and the EC50 worked out at 1 nM. In assay [2], the Emax is 0% and the EC50 was > 25000 nM.
